melting point [°C]	Compound
119 to 122	CCOC(=O)C1=C(NC(=O)Nc2ccc(Cl)c(C(=O)OCC)c2)CCCC1
79 to 81	CCC(=O)Nc1c([N+](=O)[O-])cnn1-c1ccc(Cl)c(Cl)c1Cl
135 to 141	FC(F)(F)c1ccc(CC[C@H]2CNCCN2)cc1
180 to 182	CCCSc1ncc(C(=O)N[C@@H](Cc2ccc(O)cc2)C(=O)OC)n1Cc1ccccc1Cl
67	Clc1cnc(SCI)nc1
93 to 94	CC(C)(C)C1=CC(O)(C(F)(F)F)C=C(C(C)(C)C)C1=O
187 to 189	O=C1C(Cc2ccccc2)SC(=S)N1c1nc2ccccc2s1 (stereo not drawn)
208	COc1cc(C(=O)n2c3c(c4ccccc42)CC(C(=O)O)(C(=O)O)CC3)cc(OC)c1OC
90 to 92	COC(=O)CCCCCCC1C(=O)CCN1C(=O)c1ccc(-c2ccccc2)cc1 (stereo not drawn)
222	CCCC1=C(C(=O)OCC)C(c2csc3ccccc23)c2c[nH]nc2N1 (stereo not drawn)
55 to 57	CCOC(=O)NC(=O)C(F)F
75 to 77	CC(C)(C)OC(=O)NCCCn1nnnc1S
270 to 275	COC(=O)c1ccc(NC(=O)C(CC2CCCC2)c2ccc(F)c(C(F)(F)F)c2)nc1 (stereo not drawn)
> 250	COc1cc2nc(N3CCN(c4nc5ccccc5o4)CC3)nc(N)c2cc1OC
93 to 94	C=CCOc1cc([N+](=O)[O-])ccc1OC
290 to 291	CC(C)Cn1c(=O)[nH]c2ncc(-c3ccc(O)cc3)nc21
> 250	CC(C)(C)c1cc(C(=O)NCC(=O)Nc2ccc(N=C(N)c3cccs3)cc2)cc(C(C)(C)C)c1O
129 to 132	CCC1(O)C(C)=CC(=O)N1Cc1ccccc1 (stereo not drawn)
123 to 124	CCCCOc1c(CNC(=O)OC(C)(C)C)n(CC(C)C)c(=O)c2ccc(-c3ccccn3)cc12
133 to 136	Cc1ccc(Oc2nc3nc(C)cc(C)n3n2)c(C)c1
135	CC(C)(C)c1ccc(OC(=O)n2c3c(c(=O)n(C4CCCCO4)c2=O)CCC3)cc1 (stereo not drawn)
97 to 98	CSCc1noc(-c2cc(C(C)(C)C)c(O)c(C(C)(C)C)c2)n1
125 to 127	O=C(NC(O)C(=O)O)c1c(F)cccc1F (stereo not drawn)
78 to 79	Cc1cc(Cl)ccc1N=CN(C)SN(c1ccccc1)c1ccccc1
125 to 127	CCCc1nc2c(N)nc(C)c(C)c2n1CCCO/N=C(\C)c1ccccc1
114 to 115	COCCc1nnc(NC(=O)C(c2ccccc2)c2ccccc2)o1
130 to 132	CCOC(=O)C1CNc2ccc([N+](=O)[O-])cc2O1 (stereo not drawn)

melting point [°C]	Compound
48 to 51	COc1cc2c(cc1O)C(C1(c3ccccc3Br)CCC1)N(C)CC2 (stereo not drawn)
80 to 81	CCCS(=O)(=O)NCc1ccc2ccn(C3CCN(CCc4ccc(F)cc4)CC3)c2c1
123 to 125	O=C1C2CCCCC2=Nc2ccccc2N1Cc1ccccc1 (stereo not drawn)
109 to 112	Nc1ncc(-c2ccccc2)nc1Sc1ccccc1
119 to 121	COC(=O)CCCNC(=O)C(CO)NS(=O)(=O)c1ccc(Cl)cc1 (racemic)
137 to 138	CCCCCCCCCCOc1ccc(-c2c(C)[nH]c(=O)n2C2CCCCC2)cc1
125 to 128	Cc1ccc(S(=O)(=O)N2CCC[C@H]2C(=O)N[C@@H](Cc2ccc(NC(=O)C3CCNCC3)cc2)C(=O)O)cc1
209	O=C(Cc1ccc2c(c1)OCO2)N[C@H]1CC[C@H](CCN2CCC(c3cccc4c3CCO4)CC2)CC1
300	CN(C)c1ccc(NC2=CC(=O)C(N)=CC2=O)cc1
220	CC(C)(N)c1ccc(-c2nc(Nc3cc(F)c(F)c(F)c3)ncc2C#N)cc1
242 to 244	S=C1Nc2ccccc2CN(c2ccccc2)N1
113 to 114	COc1ccc(NC(=O)N2CCCC2=O)cc1
120 to 121	Oc1ccc(-c2nc3cc(O)cc(-c4ccco4)c3o2)cc1
173 to 175	CCOC(=O)c1cc(Cl)cc(NCS(=O)(=O)c2ccc(Cl)cc2)c1Cl
301 to 303	O=C1c2ccc(Cl)cc2-n2c1nc1ccccc1c2=O
166	O=C(C=Cc1ccc(-c2ccc3ncnc(Nc4ccc(OCc5cccc(F)c5)c(Cl)c4)c3c2)s1)NOC1CCCCO1 (stereo not drawn)
285 to 286	CCCn1c(=O)c2c(nc(C=Cc3ccc(C(=O)O)cc3OC)n2C)n(CCC)c1=O
87 to 88	Cc1nc(CO)n(COCc2ccccc2)c1Sc1ccccc1
90 to 92	COC(=O)CC(=O)c1ccc(O)cc1
156 to 157	CC(=O)c1cccc(C(=O)N2CCN(C(=O)c3cc(C(F)(F)F)cc(C(F)(F)F)c3)[C@H](Cc3ccc(C)c(C)c3)C2)c1
80 to 82	O=C(CCC12CCC(=O)N1C(=O)CC2)OCc1ccccc1
136	O=C(Nc1nccs1)c1c(C(F)(F)F)nc(-c2cccs2)c(-c2ccccc2)c1O
159	Cc1c(CC(=O)OC(OC(=O)Cc2cc(C(C)(C)C)c(O)c(C)c2C)(OC(=O)Cc2cc(C(C)(C)C)c(O)c(C)c2C)C(C)(C)C)cc(C(C)(C)C)c(O)c1C
175 to 177	CCc1cc(NC(=O)C(CSC(C)=O)Cc2ccccc2)cc(C(=O)O)c1 (stereo not drawn)
149 to 151	CC(=O)OC1CSC(Oc2cccc3oc(C)nc23)C(OC(C)=O)C1OC(C)=O (stereo not drawn)
110 to 111	Cc1cc(CCCCCS(=O)c2ccc(C3=NCCO3)cc2)on1 (stereo not drawn)

More lines, now with the values behind:

Compound	melting point [°C]
Cc1cc2nc3c4cc(N)ccc4n(CCN(C)C)c3nc2cc1C	250 to 251
O=c1[nH]c2ccc(C(F)(F)F)cc2c(-c2cc(Cl)ccc2O)c1NS(=O)(=O)c1ccccc1	262 to 265
CS(=O)(=O)Nc1cc(N)c([N+](=O)[O-])cc1OC1CCCCC1	136 to 137
O=S(=O)(c1cccs1)N(CCN1CCOCC1)c1cccc2cc(-c3nccs3)[nH]c12	192 to 193
OCc1csc(Nc2ccccc2)n1	115 to 118
COCCCCCCCCCCC(=O)O	31 to 32
CC(=O)Nc1ccc(-c2cc(C(=O)c3cccnc3)sc2N2CCOCC2)cc1	144
Cc1cc(CCCCCOc2ccc(C(N)=S)cc2)on1	156 to 158
CCCCCCCCCCCCc1ccccc1C(Sc1ncc(C(=O)O)n1C)C(O)CCC(=O)O (stereo not drawn)	79 to 80
C[C@H](OCc1cc2cc(Cl)ccc2n1S(=O)(=O)c1ccc2ncsc2c1)C(=O)O	82
CC(=O)N1C(=O)N(c2ccc(C#N)c(C(F)(F)F)c2)C(=O)C1(C)C	129 to 130
COc1cc(OC)c(-c2cc3ccccc3s2)cc1/C=C/C(=O)c1ccc(C(=O)NC(C)=O)cc1	228 to 229
COc1ccc(NC(C)=O)c(O)c1C(C)=O	160 to 162
Nc1nc(COc2ccc(Cl)c(Cl)c2)nc2nccnc12	261 to 263
NC(=O)c1[nH]cnc1OC(=O)C(=Cc1ccccc1)c1ccccc1	208
COc1ccc(-c2ncc(N(C)CCCCOCC(=O)O)nc2-c2ccc(OC)cc2)cc1	128 to 130
Cc1cccc(OCC(F)(F)F)c1N(Cc1cc[nH]n1)C(=O)CCl	104 to 105
C=C1C(C(=O)c2ccccc2)CC(O[Si](c2ccccc2)(c2ccccc2)C(C)(C)C)C1COC(c1ccccc1)(c1ccccc1)c1ccccc1 (stereo not drawn)	142 to 144
O=C(Cc1ccc(Cl)cc1)Nc1cccc(-n2nc(C(F)(F)F)cc2C(F)(F)F)c1	209 to 211
CCCCCCCCC#Cc1ccc2nc(C=O)ccc2c1	46.5 to 47.5
CCCCCCCCCCOC(=O)OC(C)OC1=C(C(=O)Nc2ccccn2)N(C)S(=O)(=O)c2ccccc21 (stereo not drawn)	84 to 86
Cc1ccc(C=CC(=O)C(CCC(=O)O)(Cc2ccccc2Cl)c2ccccc2)cc1 (stereo not drawn)	120 to 147
CCC1CCC2C3CCC4CC(O)CCC4(C)C3C(N(C)C)CC12C (stereo not drawn)	147 to 150

Compound	melting point [°C]
CCN(CC)C(=O)CN1C(=O)C(NC(=O)Nc2ccc(Cl)cc2)N=C(c2ccccc2)c2ccccc21 (stereo not drawn)	284 to 285
O=C(CC(Cc1ccccc1)C(=O)O)c1ccc(F)cc1 (single isomer, unassigned; (+))	88
CC1(C)OCc2cc(Cl)cc(C(=O)c3cn(C(c4ccccc4)(c4ccccc4)c4ccccc4)cn3)c2O1	200 to 205
c1ccc(NN2CCc3ccccc32)cc1	182 to 183
CN(C(=O)c1ccc(Nc2nccc(Nc3ccc(C(F)(F)F)cc3)n2)cc1)C1CCOCC1	254 to 256
O=C(Nc1cc(OCCCO/N=C/c2ccc(C(F)(F)F)cc2)ccc1C(=O)O)c1ccc(C(F)(F)F)cc1	209 to 210
C[C@H]1CCCC(C)(C)[C@@H]1[C@H](O)c1ccc(C#N)c(Cl)c1	116 to 118
Clc1ccc(OCCN2CCN3CC=C(c4ccncc4)N=C32)cc1	211 to 213
CCCCCCCc1ccc(C=Nc2ccc(C#N)cc2)cc1	32.7 to 33
CON(C)C(=O)C(Cc1c[nH]c2ccccc12)NC(=O)OC(C)(C)C (stereo not drawn)	129 to 130
Cc1onc(-c2ccccc2)c1-c1nc(-c2c(F)cccc2Cl)nn1C	120 to 125
O=C1C(=O)N(Cc2ccc(Br)cc2F)c2c(Cl)cccc21	164 to 166
OC1CSC(Oc2cncc(-c3ccc(F)cc3)c2)C(O)C1O (stereo not drawn)	208 to 209
N#Cc1ccc(N2CCC(CC(=O)O)CC2)c2ccccc12	195 to 196
CCCCC(=O)Nc1ccc2c(c1)C(=O)OC2CCCC (stereo not drawn)	137 to 139
CC(=O)NCc1cc([N+](=O)[O-])ccc1C	133 to 138
CCOC(=O)C(=CN(C)C)C(=O)Nc1ccc(Br)cc1C	88 to 90
O=C1CNCC2c3ccccc3CCN12 (stereo not drawn)	119 to 120
Cc1cc(=O)n(Cc2ccccc2)c2ccccc12	109 to 111
CCOC(=O)CNC1=C(C(=O)c2cccnc2Cl)CCC1	114 to 118
CC(=O)SCCC(=O)NC(Cc1cn(C=O)c2ccccc12)C(=O)O (racemic)	130 to 133
Nc1ccc2c(c1)OCCNC2=O	151 to 152

From a melting point compilation (Tetko et al.; mined from patent text by program, amines drawn as free bases though some values may be those of a salt)
